A short description of test [1]: Effect on body weight in high-fat diet fed male C57BL/6J mice. Type of test: in vivo. The following applies: for effect on body weight (in words): high-fat diet fed male C57BL/6 mice. The procedure: (§1) The C57BL/6 mice were housed on a lightdark cycle in a room with temperature (22±2° C.) and humidity control. They were fed either a high-fat diet (HFD) (49% fat, 18% protein, 33% carbohydrate) or a standard mouse diet (STD) (8% fat, 19% protein, 73% carbohydrate). Six-week-old C57BL/6J male mice were given HFD or STD diets for 17 wks before drug treatment started. […] After this, mice were weighed and treated as per the following three groups, while the diet treatment continued.
(§2) High-fat diet fed & vehicle treated (HFD-V), • High-fat diet fed & treated with 10 mg/kg Compound 2 (HFD-R 10 mg) • High-fat diet fed & treated with 10 mg/kg Compound 1 (HD-ZY 10 mg) • Compound 1 and Compound 2 were administered orally in distilled water with 0.1% Tween 80 one hour before the onset of the dark phase.
(§3) The animals were observed daily. Body weights were recorded daily, and the animals were photographed on 28th day on the back, The results are mentioned in Table 1 and Table 2.

For the next test, the system named is male C57BL/6J mice. In words: Effect on hair growth (bald area) in high-fat diet fed male C57BL/6J mice. Type of test: in vivo. Particulars: 10 mg/kg orally; for growth of body hair (in words): high-fat diet fed male C57BL/6 mice, 28 days. Here is the method:
as §1, §2, §3

The values below come from patent publication US20060025448A1, “Hair growth stimulators” (CADILA HEALTHCARE LIMITED, priority 2004, published 2006).

The structures appear in SMILES notation.

For `Cc1c(C(=O)NN2CCCCC2)nn(-c2ccc(Cl)cc2Cl)c1-c1ccc(Cl)s1.Cl` [Compound 1, Hydrochloride salt of 5-(5-Chloro-thiophen-2-yl)-1-(2,4-dichloro-phenyl)-4-methyl-1H-pyrazole-3-caxboxylic acid piperidin-1-ylamide], in test [1] (high-fat diet fed male C57BL/6J mice, 10 mg/kg orally, 28 days, n = 6), the “Change in Body Weight in 28 days versus Day 0” value is -1.7 ± 0.5 g. In test [1] (high-fat diet fed male C57BL/6J mice, 10 mg/kg orally, Day 28, n = 6), the “Body Weight on Day 28” value worked out at 26.9 ± 1.1 g. Also, the “Change in Body Weight versus HFD-V” value in test [1] (high-fat diet fed male C57BL/6J mice, 10 mg/kg orally, versus vehicle group, n = 6) was -3.3 ± 1.8 g. Moreover, the “Body Weight on Day 0” value in test [1] (high-fat diet fed male C57BL/6J mice, Day 0 (baseline before treatment), n = 6) was found to be 29.2 ± 1.1 g. The “effect on body weight (in words)” value in test [1] (10 mg/kg orally, 28 days, 10 mg/kg) was “decrease in body weight”; in test [1] (10 mg/kg orally, 28 days, listed as compound 1, 10 mg/kg), “decreasing body weight”. In addition, the “bald area (where hair growth or pigmentation has not appeared), Area (Mean ± Standard Error Mean)” value with male C57BL/6J mice (high-fat diet fed male C57BL/6J mice, after 28th day of dosing, n = 6) came out at 0.011 ± 0.223 cm^2. In addition, the “growth of body hair (in words)” value in the test with male C57BL/6J mice (10 mg/kg) was “significantly enhanced the growth of body hair”; with male C57BL/6J mice (listed as compound 1, 10 mg/kg), “able to stimulate hair growth”.
